For 1 substance, IC50 results are on record in patent publication EP0463456A1, “Phosphorus-containing HMG-CoA reductase inhibitors, new intermediates and their use” (E.R. SQUIBB & SONS, INC., priority 1990, dated 1992).

For this assay, the target named is T1, Rat hepatic HMG-CoA reductase (Rattus norvegicus, UniProt P51639).
T1 construct: Livers are removed from 2-4 cholestyramine-fed, decapitated, Sprague Dawley rats, and homogenized in phosphate buffer A; from tissue; host or cells: liver microsomes of cholestyramine-fed Sprague Dawley rats
T1 sequence (P51639 1-887): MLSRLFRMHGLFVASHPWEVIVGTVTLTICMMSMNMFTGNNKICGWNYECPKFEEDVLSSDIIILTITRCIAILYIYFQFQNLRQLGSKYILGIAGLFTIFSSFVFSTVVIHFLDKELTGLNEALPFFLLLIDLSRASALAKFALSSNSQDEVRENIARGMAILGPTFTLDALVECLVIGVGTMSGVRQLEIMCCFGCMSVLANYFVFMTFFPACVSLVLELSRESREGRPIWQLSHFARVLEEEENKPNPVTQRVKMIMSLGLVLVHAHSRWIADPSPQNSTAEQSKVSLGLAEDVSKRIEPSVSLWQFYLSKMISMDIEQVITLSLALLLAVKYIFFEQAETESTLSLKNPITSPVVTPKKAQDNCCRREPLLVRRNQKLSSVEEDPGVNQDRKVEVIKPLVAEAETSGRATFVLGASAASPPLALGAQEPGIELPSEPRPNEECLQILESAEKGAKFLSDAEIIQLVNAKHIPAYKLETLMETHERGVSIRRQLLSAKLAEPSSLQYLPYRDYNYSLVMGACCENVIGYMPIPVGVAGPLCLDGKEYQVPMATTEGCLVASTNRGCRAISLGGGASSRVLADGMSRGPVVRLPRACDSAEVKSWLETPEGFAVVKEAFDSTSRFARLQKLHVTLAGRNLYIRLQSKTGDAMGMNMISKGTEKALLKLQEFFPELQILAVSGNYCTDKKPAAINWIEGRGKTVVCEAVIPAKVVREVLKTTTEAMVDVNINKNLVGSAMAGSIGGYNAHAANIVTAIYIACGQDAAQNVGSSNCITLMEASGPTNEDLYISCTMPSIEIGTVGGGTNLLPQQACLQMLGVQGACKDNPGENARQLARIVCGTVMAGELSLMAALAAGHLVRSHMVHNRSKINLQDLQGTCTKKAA
As to the kind of experiment: Rat Hepatic HMG-CoA Reductase test (conversion of 14C-HMG-CoA to 14C-mevalonic acid by rat hepatic microsomes). It is filed as biochemical. Conditions: concentration producing 50% inhibition of enzyme activity, 100 µM HMG-CoA, 20 minutes at 37° C, read-out: Reductase 150. How it is done: 1) Rat Hepatic HMG-CoA Reductase
Rat hepatic HMG-CoA reductase activity is measured using a modification of the method described by Edwards (Edwards, P.A., et al., J. Lipid Res. 20:40, 1979). Rat hepatic microsomes are used as a source of enzyme, and the enzyme activity is determined by measuring the conversion of the ^14C-HMG-CoA substrate to 14C-mevalonic acid.
a. Preparation of Microsomes
Livers are removed from 2-4 cholestyramine-fed, decapitated, Sprague Dawley rats, and homogenized in phosphate buffer A (potassium phosphate, 0.04 M, pH 7.2; KCI, 0.05 M; sucrose, 0.1 M; EDTA, 0.03 M; aprotinin, 500 KI units/ml). The homogenate is spun at 16,000 x g for 15 minutes at 4°C. The supernatant is removed and recentrifuged under the same conditions a second time. The second 16,000 x g supernatant is spun at 100,000 x g for 70 minutes at 4° C. Pelleted microsomes are resuspended in a minimum volume of buffer A (3-5 ml per liver), and homogenized in a glass/glass homogenizer. […]
Standardized assays for the evaluation of inhibitors are conducted according to the following procedure. […] The first 0.5 ml is discarded, and the next 1.5 ml is collected and counted for both tritium and carbon 14 in 10.0 ml Opti-fluor scintillation fluid. Results are calculated as nmoles mevalonic acid produced per 20 minutes, and are corrected to 100% recovery of tritium. […]

“(S)-4-[[[4-(4-Fluorophenyl)-1,2-bis(1-methylethyl)-5-phenyl-1H-pyrrol-3-yl]-ethynyl]hydroxyphosphinyl]-3-hydroxybutanoic acid, dilithium salt [SQ 34,346]”: the IC50 was 0.6 nM.
